{"source": "patent US20100323028A1", "about": "“METHOD AND COMPOSITION FOR TREATING PULMONARY HEMORRHAGE” (JBS UNITED, INC., priority 2007, published 2010)", "origin": "cited, not measured here", "test_system": "horses", "settings": "alone or in combination not able to totally eliminate EIPH", "data": [{"smiles": "NS(=O)(=O)c1cc(C(=O)O)c(NCc2ccco2)cc1Cl", "note": "[furosemide]", "values": [{"measurement": "Effect on EIPH", "value": "effective in reducing EIPH"}]}]}
